US20230372433A1, “NANOPARTICLE FOR ANTI-CANCER PEPTIDES AND USES THEREOF” (KING'S COLLEGE LONDON, priority 2020, published 2023)
Where two headings read alike, the source gives them in different places.

What was measured:
[1] = Tryptophan fluorescent binding assay, 3POPC/1POPG vesicles; conditions: 50 μM peptide, PBS pH 7.4
Method: (§1) In brief, 50 μM peptides were fixed and incubated with titrated POPC vesicles (black) or 3POPC/1POPG vesicles (grey) at concentrations of 0, 12.5, 25, 50, 100, 250, 500, 1000, 2500, and 5000 μM in phosphate buffered saline (1X, pH 7.4). The lipid concentration that causes 50% peptide binding was determined using a tryptophan fluorescent binding assay and the values are shown as lipid per peptide.
(§2) The lipids 1-palmitoyl-2-oleoyl-sn-glycero-3-phosphocholine (POPC), 1-palmitoyl-2-oleoyl-snglycero-3-phospho-(1′-rac-glycerol) (POPG) were purchased from Avanti Polar Lipids and dissolved in chloroform. Large unilamellar vesicles (LUVs) were produced by extrusion through 100 nm pore filter using an extruder and filters purchased from Avanti Polar Lipids.
(§3) Peptides (50 μM) and POPC/POPG LUVs (600 μM) were prepared in 10 mM phosphate buffer (pH 7.0). The solutions were incubated and measured after 60 minutes. Excitation was fixed at 280 nm (slit 9 nm) and emission was collected from 300 to 450 nm (slit 9 nm). The spectra were recorded using a Synergy H1 Hybrid Multi-Mode Reader (FIG. 3A) and Cytation™ 5 Cell Imaging Multi-Mode Reader (FIG. 2) from BioTek and were averaged over 3 scans.
(§4) Table 3 illustrates the lipid concentration-induced 50% peptide binding onto a liposome. 50 μM peptide was fixed and incubated with titrated lipid (POPC vesicles or 3POPC/1POPG vesicles) at concentrations of 0, 12.5, 25, 50, 100, 250, 500, 1000, 2500, and 5000 μM in phosphate buffered saline (1X, pH 7.4). The lipid concentration that causes 50% peptide binding was determined using tryptophan fluorescent binding assay and the values are shown as lipid per peptide. IN-terminus is free, C-terminus: —W—NH2.

[2] = test system: HEK293T (human embryonic kidney cell); test: MTT cytotoxicity assay, HEK293T; assay type: cell-based; conditions: 72 hr, MTT; read-out: IC50 HEK293T
[3] = ANTS/DPX liposome leakage assay, 3POPC/1POPG vesicles; assay type: biochemical; conditions: 0.5 mM vesicles
Method: (§5) In brief, 0.5 mM POPC vesicles (grey) or POPC:POPG vesicles (ratio 3:1, black) were incubated with peptide concentrations of 0, 0.02, 0.04, 0.08, 0.16, 0.32, 0.64, 1.25, 2.5, 5, 10, and 20 μM in each A) hydrochloric acid-adjusted phosphate buffered saline (1X, pH 4.8) and B) phosphate buffered saline (1X, pH 7.4).
as §2
(§6) 5 mM ANTS (8-aminonaphthalene-1,3,6-trisulfonic acid, disodium salt) and 12.5 mM DPX (p-xylene-bis-pyridinium bromide) were entrapped in 0.1 μm diameter extruded vesicles with lipids. Gel filtration chromatography using a Sephadex G-100 (GE Healthcare Life Sciences Inc) was used to remove external free ANTS/DPX from LUVs with entrapped contents. LUVs were diluted to 0.5 mM and used to measure the leakage activity by addition of aliquots of peptides. Leakage was measured after 3 h incubation. 10% Triton was used as the positive control to measure the maximum leakage of the vesicle. Fluorescence emission spectra were recorded using excitation and emission wavelength of 350 nm and 510 nm for ANTS/DPX using a BioTek Synergy H1 Hybrid Multi-Mode Reader.
(§7) Table 4 illustrates peptide concentration-induced 50 ANTS/DPX liposome leakage. 0.5 mM POPC and 3POPC/1POPG vesicles were fixed and incubated with titrated peptide concentration (0, 0.02, 0.04, 0.08, 0.16, 0.32, 0.64, 1.25, 2.5, 5, 10, and 20 μM) each in phosphate buffered saline (1X, pH 7.4) and hydrochloric acid-adjusted phosphate buffered saline (1X, pH 4.8). The values are shown as lipid per peptide. IN-terminus is free, C-terminus: —W—NH2.

[4] = ANTS/DPX liposome leakage assay, POPC vesicles; assay type: biochemical; conditions: 0.5 mM vesicles
Method: as §5, §2, §6, §7

[5] = test system: MCF-10A (human breast epithelial cell); test: cells
Source text: HMLER (human mammary endothelial cancer cells), HMLER-shEcad (human mammary endothelial cancer stem cells), and MCF-10A (healthy human mammary endothelial) cells were maintained in Mammary Epithelial Cell Growth Medium (MEGM) with supplements and growth factors: bovine pituitary extract (BPE), hydrocortisone, human epidermal growth factor (hEGF), insulin, and gentamicin/amphotericin-B. HEK293T (human embryonic kidney cell), and U2OS (homo sapiens bone osteosarcoma) cells were maintained in Dulbecco's Modified Eagle's Medium (DMEM) with a final concentration of 10% fetal bovine serum. The cells were grown in T75 flask at 310 K in a humidified atmosphere containing 5% CO2.
The colourimetric MTT (3-(4,5-dimethylthiazol-2-yl)-2,5-diphenyltetrazolium bromide) assay was used to determine the toxicity of the anti-cancer peptides and conventional anti-cancer drugs. 5×10^3 cells were seeded in each well of a 96-well microplate. The cells were incubated overnight. Elevated concentrations of the compounds (0, 0.1, 0.2, 0.4, 0.8, 1.6, 3.1, 6.3, 12.5, 25, 50 and 100 μM) were added and incubated for 72 hr with a total volume 200 μL. The stock solutions of the compounds were prepared as 5 mM solutions in DMSO and diluted using media or in pure water. The final concentration of DMSO in each well was either 0.5% or 0% and this amount was present in the untreated control. After 72 hr, 20 μL of a 4 mg/mL solution of MTT in PBS was added to each well, and the plate was incubated for an additional 4 hr. The MEGM/MTT mixture was aspirated and 100 μL of DMSO was added to dissolve the resulting purple formazan crystals. The absorbance of the solutions in each well was read at 550 nm wavelength. Absorbance values were normalized to either DMSO-containing or non DMSO-containing control wells and plotted as concentration of test compound versus % cell viability. ICso values were interpolated from the resulting dose dependent curves.
The peptides were screened against several different human cell lines and their cytotoxicity were determined. Cell lines utilised include MCF-10A (human breast epithelial cell), HMLER (human breast cancer bulk cell), HMLER-shEcad (human breast cancer stem cell), HEK293T (human embryonic kidney cell), and U2OS (human bone osteosarcoma).

[6] = test system: HMLER (human breast cancer bulk cell); test: MTT cytotoxicity assay, HMLER; assay type: cell-based; conditions: 72 hr, MTT; read-out: IC50 HMLER
[7] = test system: U2OS (human bone osteosarcoma); test: MTT cytotoxicity assay, U2OS; assay type: cell-based; conditions: 72 hr
[8] = test system: HMLER-shEcad (human breast cancer stem cell); test: MTT cytotoxicity assay, HMLER-shEcad; assay type: cell-based; conditions: 72 hr, MTT; read-out: IC50 HMLER-shEcad
[9] = Tryptophan fluorescent binding assay, POPC vesicles; conditions: 50 μM peptide, PBS pH 7.4
Method: as §1, §2, §3, §4

[10] = read-out: IC50 MCF-10A, 72 hr, MTT

| Compound | Lipid Concentration-induced 50% Peptide Binding (L/P) 3POPC/1POPG Vesicle [1] | IC50 [2] | Peptide Concentration-induced 50% ANTS/DPX leakage at pH 4.8 (L/P) 3POPC/1POPG Vesicle [3] | Peptide Concentration-induced 50% ANTS/DPX leakage at pH 7.4 (L/P) 3POPC/1POPG Vesicle [3] | Peptide Concentration-induced 50% ANTS/DPX leakage at pH 4.8 (L/P) POPC Vesicle [4] | Peptide Concentration-induced 50% ANTS/DPX leakage at pH 7.4 (L/P) POPC Vesicle [4] | IC50 [5, 10] | IC50 [6] | IC50 [7] | IC50 [8] | Lipid Concentration-induced 50% Peptide Binding (L/P) POPC Vesicle [9] | IC50 [5] |
| --- | --- | --- | --- | --- | --- | --- | --- | --- | --- | --- | --- | --- |
| GLLHLLKLLLHAAG [HKH] | 0.38 L/P | 5.7 ± 0.99 µM | 47 L/P | 274 L/P | 193 L/P | 1077 L/P | 6.1 µM | 3450 ± 210 nM | 18.9 ± 1.24 µM | 3100 ± 570 nM | 0.18 L/P |  |
| GLLELLKLLLHAAG [EKH] | 0.19 L/P | 6.65 ± 1.34 µM | 88 L/P | 365 L/P | 55 L/P | 608 L/P | 7.9 ± 0.42 µM | 2750 ± 70 nM | 23.8 ± 0.81 µM | 2180 ± 310 nM | 0.75 L/P |  |
| GLLKLLKLLLEAAG [KKE] | 0.44 L/P | 4.4 ± 0.14 µM | 131 L/P | 346 L/P | 143 L/P | 1133 L/P | 2.9 ± 0.57 µM | 2050 ± 640 nM | 12.8 ± 1.2 µM | 1700 nM | 0.48 L/P |  |
| GLLDLLKLLLKAAG [DKK] | 6.88 L/P | 3.4 ± 0.28 µM | 227 L/P | 156 L/P | 47 L/P | 463 L/P | 2.57 ± 0.52 µM | 1950 ± 350 nM | 10.4 ± 1.7 µM | 1200 ± 140 nM | 2.75 L/P |  |
| GLLKLLHLLLKAAG [KHK] | 0.38 L/P | 3.55 ± 0.78 µM | 53 L/P | 193 L/P | 140 L/P | 1153 L/P | 1.81 ± 0.05 µM | 2590 ± 920 nM | 12.9 ± 1.24 µM | 1400 ± 140 nM | 0.17 L/P |  |
| GLLDLLHLLLEAAG [DHE] | 0.72 L/P | 11.1 ± 1.91 µM | 469 L/P | 581 L/P | 58 L/P | 566 L/P | 22.7 ± 4.31 µM | 3750 ± 920 nM | 17.2 ± 1.06 µM | 2800 ± 140 nM | 1.00 L/P |  |
| CC(C)C[C@H](NC(=O)CN)C(=O)N[C@@H](CC(C)C)C(=O)N[C@@H](CCC(=O)O)C(=O)N[C@@H](CC(C)C)C(=O)N[C@@H](CC(C)C)C(=O)N[C@@H](CCC(=O)O)C(=O)N[C@@H](CC(C)C)C(=O)N[C@@H](CC(C)C)C(=O)N[C@@H](CC(C)C)C(=O)N[C@@H](CCC(=O)O)C(=O)N[C@@H](C)C(=O)N[C@@H](C)C(=O)NCC(=O)N[C@@H](Cc1c[nH]c2ccccc12)C(N)=O [EEE] | 4.50 L/P | 50 µM | 28 L/P | 346 L/P | 35 L/P | 143 L/P |  | 6250 ± 1770 nM | 78.8 ± 5.3 µM | 10600 ± 3460 nM | 1.33 L/P | ≥ 100 µM |
